System: PC3 cells
Assay: Annexin V-FITC/PI flow cytometry, PC3
Assay type: cell-based, human
Conditions: PC3, 72 h, IC50 concentration
Protocol: To estimate the mechanism of anticancer activity of the selected compounds 1–3, 8, and 9, their effect on both early and late apoptosis was evaluated by flow cytometry analysis. […] Additionally, visible late apoptosis-inducing properties in these cell lines were denoted for the compound 9 (47% ± 3.0%), which was twice as strong towards the colon tumor cells mentioned above. The apoptotic properties of analogs 3 and 8 in K-562 cells varied from 30% ± 1.6% to 33% ± 2.3%. […] Whereas the apoptosis-generating influence of derivatives 2 and 3 on normal keratinocytes was higher (29% and 23%), their selectivity measured by MTT methods is favorable. The obtained results are in agreement with the IC50 values assigned to pathological cancer cell lines. The cells were cultured and harvested under the conditions described in Section 3.2.1. […] The effect of these compounds on the process of early and late apoptosis and necrosis was determined as described previously by dual staining with Annexin V:FITC and propidium iodide, according to the manufacturer’s protocol (Becton Dickinson). The cells that were Annexin V:FITC positive and PI negative were identified as early apoptotic, and Annexin V:FITC and PI positive as late apoptotic or necrotic.

FC(F)(F)c1ccc(NC(=S)Nc2cccc(C(F)(F)F)c2)cc1 [Compound 8, 1-[3-(trifluoromethyl)phenyl]-3-[4-(trifluoromethyl)phenyl]thiourea]
cells in late apoptosis: 25% ± 1.5%
